Data from patent US20230017712A1, “SUSTAINED RELEASE DRUG DELIVERY DEVICE” (OAK CREST INSTITUTE OF SCIENCE, priority 2019, published 2023).
Read-outs that look alike come from different tables or passages of the source.

What was measured:
HIV [1] = details: from non-human primate efficacy studies; cited from earlier work
[2] = 600 mg every 8 weeks, intramuscular; cited from earlier work
[3] = kernel 70% TAF / 30% triethyl citrate
Protocol: For both implant types, kernels consisted of 70% TAF and 30% triethyl citrate (w/w). Skins used custom tube extrusions of polyurethane [Pellethane® 2363-55DE (Lubrizol, Inc.); 25 mm length, 2.2 mm I.D., 0.13 mm wall thickness] and silicone [MED-4765 (Nusil, Inc.); 25 mm length, 2.1 mm I.D., 0.13 mm wall thickness]. The implant ends were sealed with MEDS-4213 (Nusil, Inc.) silicone adhesive. In vitro release studies were carried out in 100 mL of release media (0.5% solutol HS 15 in 1×PBS) at 37° C. in an orbital shaking incubator at 125 RPM. Media was changed as required to keep TAF concentration at least 50-fold below saturation to maintain sink conditions.

[4] = TAF powder, no excipients, PBS, 37° C.
Protocol: Segments (25 mm long) of the ePTFE tubes listed in TABLE 1 were cut, and approximately 3 mm of each end of the tube were prepared for sealing using FluoroEtch primer (Action Technologies, Pittston, Pa.) according to manufactures instructions. The tubes were then filled with tenofovir alafenamide (TAF) powder. No other excipients were used. The mass of TAF per implant varied between 20 and 70 mg depending on the experiment. The filled implants were sealed at both ends by placing a drop of Permabond 105 cyanoacrylate adhesive (Permabond Engineering Adhesives, Pottstown, Pa., USA) inside each end of the tube and crimping the end closed for 30 sec to allow the adhesive to cure and form a tight seal. Implants were kept at room temperature (ca. 23° C.) for 24 hours to allow the adhesive bond to reach full strength. The TAF in vitro release kinetics from the loaded implants was investigated by immersing the device in a solution consisting of phosphate buffered saline (PBS, 1×, 100 mL) containing sodium azide (0.01% w/v) at 37° C. with orbital shaking at 125 RPM for 30 days. The concentration of TAF in the release media was measured by UV-vis absorption spectroscopy (λmax 262 nm).

[5] = Protocol: The concentration of TAF in the release media was measured by UV-vis absorption spectroscopy (λmax 262 nm).
HIV [6] = details: cited from earlier work
[7] = monoolein (MYVEROL 18-92K) paste, FIG. 30B
Protocol: (§1) In vitro release studies were carried out in 100 mL of release media (0.1% solutol HS 15 in 1×PBS) at 37° C. in an orbital shaking incubator at 125 RPM. Media was changed as required to keep TAF concentration at least 50-fold below saturation to maintain sink conditions.

Remark: listed apart in the source
HIV [8] = details: target 50 fmol TFV-DP per million PBMCs; cited from earlier work
[9] = paste 50% TAF / 50% PEG 400
Protocol: as §1, with “Implants were fabricated using an ePTFE tubing skin (40 mm length, 2.0 mm I.D., 0.18 mm wall thickness) and a paste kernel composed of 50% TAF and 50% PEG 400 (w/w); the tube ends were sealed. In” for “In”

SMILES	steady state plasma concentration target, four times the protein adjusted IC90 (PA-IC90) (HIV [1])	participants with trough concentrations above 1× PA-IC90 [2]	participants with trough concentrations above 4× PA-IC90 [2]	release rate, linear fit days 20-160 ([3]; polyurethane skin (Pellethane 2363-55DE))	release rate, linear fit days 20-160 ([3]; silicone skin (MED-4765))	daily release rate (slope of linear regression, best fit value±SE) ([4]; ePTFE tube density 0.34 g cm^−3)	daily release rate (slope of linear regression, best fit value±SE) ([4]; ePTFE tube density 0.47 g cm^−3)	daily release rate (slope of linear regression, best fit value±SE) ([4]; ePTFE tube density 0.84 g cm^−3)	daily release rate (slope of linear regression, best fit value±SE) ([4]; ePTFE tube density 1.13 g cm^−3)	release behaviour of coated sponges ([5]; PDMS sponges coated with DL-PLA, L-PLA or PCL)	time for drug release from TAF-impregnated sponges ([5]; no polymer coating applied)	release rate that could be protective (HIV [6])	effect of monoolein paste on release kinetics through ePTFE tubes relative to other hydrophobic oils [7]	TAF delivered linearly over 80 days (blended with PEG 400)	TAF delivered from the implants over the first month (blended with TEC)	TAF delivered in less than the first day (blended with TEC)	slope (release rate), simple linear regression (paste TAF 77% w/w with PEG 400 23% w/w, ePTFE 0.84 g cm^−3, 40 mm implant)	linear subcutaneous release rate leading to protective TFV-DP PBMC concentrations (HIV [8])	TAF release rate ([9]; ePTFE density 0.47 g cm^−3)	TAF release rate ([9]; ePTFE density 0.84 g cm^−3)
C[C@H]1CO[C@@H]2Cn3cc(C(=O)NCc4ccc(F)cc4F)c(=O)c(O)c3C(=O)N12 [CAB, Cabotegravir]	0.66 µg/mL	≥ 95%	≥ 80%	–	–	–	–	–	–	–	–	–	–	–	–	–	–	–	–	–
CC(C)OC(=O)[C@H](C)N[P@](=O)(CO[C@H](C)Cn1cnc2c(N)ncnc21)Oc1ccccc1 [TAF, Tenofovir alafenamide]	–	–	–	0.079 mg/day	0.035 mg/day	1.22 ± 0.023 mg/day	0.40 ± 0.0087 mg/day	0.58 ± 0.0089 mg/day	0.12 ± 0.0037 mg/day	controlled and tuned over 15 d	under 1 d	ca. 0.3 mg d^−1	increasing the rate of drug release	ca. 5 mg	60 mg	5 mg	54.4 µg/day	0.5 mg/day	0.51 mg/day	0.065 mg/day
